Source: patent US10294256B2, “Phosphine oxide alkyl amide substituted heteroaryl compounds as modulators of IL-12, IL-23 and/or IFN alpha responses” (BRISTOL-MYERS SQUIBB COMPANY, priority 2016, dated 2019)
Read-outs that look alike come from different tables or passages of the source.

How the values were obtained:
[1] = target: recombinant human His-tagged Tyk2 pseudokinase domain (His-TVMV-Tyk2, 575-869) (Homo sapiens, UniProt P29597); test: Probe Displacement Assay (HTRF Format); conditions: 0.5 nM Tyk2 pseudokinase domain, 1 h room temperature, read-out: Binding IC50
Experimental: To 10 μL 26 nM fluorescein labeled probe plus 0.2 nM anti-6×His-terbium labeled antibody (Medarex, labeled by Cisbio) in assay buffer (20 mM Hepes pH 7.5, 150 mM NaCl, 10 mM MgCl2, 2 mM DTT, 50 μg/mL BSA, and 0.015% Brij 35) was added 10 μL recombinant human His-tagged Tyk2 pseudokinase domain (His-TVMV-Tyk2, 575-869) to a final concentration of 0.5 nM. After 1 h at room temperature, the HTRF signal (ratio of fluorescence intensities at emission wavelengths for fluorescein acceptor at 520 nm and terbium donor at 495 nm) was measured on an Envision Plate Reader. Percent inhibition was calculated by comparison to a control without inhibitor and a control without protein.
Protein Sequence of recombinant His-tagged Tyk2 (575-869): […]

[2] = test system: IL-23 stimulated Kit225 T cells with STAT-dependent luciferase reporter; test: Kit225 T Cell Assay, IL-23 stimulated STAT-dependent luciferase reporter; type: cell-based, human
Experimental: (§1) Kit225 T cells with a stably-integrated STAT-dependent luciferase reporter were plated in RPMI (Gibco) containing 10% heat-inactivated FBS (Gibco) and 100 U/mL PenStrep (Gibco). The cells were then stimulated with either 20 ng/mL human recombinant IL-23 or 200 U/mL human recombinant IFNα (PBL InterferonSource) for 5-6 hours. Luciferase expression was measured using the STEADY-GLO® Luciferase Assay System (Promega) according to the manufacturer's instructions. Inhibition data were calculated by comparison to no inhibitor control wells for 0% inhibition and non-stimulated control wells for 100% inhibition.

[3] = test system: IFNα stimulated Kit225 T cells with STAT-dependent luciferase reporter; test: Kit225 T Cell Assay, IFNα stimulated STAT-dependent luciferase reporter; type: cell-based, human
Experimental: as §1

[4] = KIT225, 20 ng/mL human recombinant IL-23, 5-6 hours, luciferase reporter, read-out: IL23 Kit 225 IC50
[5] = KIT225, 200 U/mL human recombinant IFNα, 5-6 hours, luciferase reporter, read-out: IFN[…] Kit 225 IC50

Sequence of recombinant human His-tagged Tyk2 pseudokinase domain (His-TVMV-Tyk2, 575-869) (P29597 with tags, fused parts or gaps): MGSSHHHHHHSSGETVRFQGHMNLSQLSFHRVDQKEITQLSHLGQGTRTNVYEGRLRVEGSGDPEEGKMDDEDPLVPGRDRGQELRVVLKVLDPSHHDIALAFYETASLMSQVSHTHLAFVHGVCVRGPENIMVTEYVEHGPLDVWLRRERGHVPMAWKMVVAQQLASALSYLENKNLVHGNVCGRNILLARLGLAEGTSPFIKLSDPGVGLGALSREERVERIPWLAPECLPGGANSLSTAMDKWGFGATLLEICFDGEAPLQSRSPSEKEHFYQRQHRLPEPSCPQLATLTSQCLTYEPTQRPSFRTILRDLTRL

Row | IC50 [1] [nM] | IC50 [2, 4] [nM] | IC50 [3, 5] [nM] | SMILES | IC50 ([2]; Homo sapiens, KIT225, read-out: IL23 Kit 225 IC50) [nM] | IC50 ([3]; Homo sapiens, KIT225, read-out: IFN[…] Kit 225 IC50) [nM]
1 | 2.2 | 3110 | 423 | [2H]C([2H])([2H])NC(=O)c1nnc(Nc2ccc(C(C)(C)O)cn2)cc1Nc1ccccc1P(C)(C)=O [Example 6] |  | 
2 | 10 | 2570 | 9160 | [2H]C([2H])([2H])NC(=O)c1nnc(Nc2ccc(OC)nn2)cc1Nc1ccccc1P(C)(C)=O [Example 4] |  | 
3 | 5.2 | 390 | 337 | [2H]C([2H])([2H])NC(=O)c1nnc(Nc2ccc(C3CC3)cn2)cc1Nc1ccccc1P(C)(C)=O [Example 5] |  | 
4 | 1.6 | 3470 | 1560 | [2H]C([2H])([2H])NC(=O)c1nnc(Nc2cc(C)nc(C)n2)cc1Nc1ccccc1P(C)(C)=O [Example 3] |  | 
5 | 0.27 | 58 | 43 | [2H]C([2H])([2H])NC(=O)c1nnc(Nc2ccc(C3CC3)cn2)cc1Nc1ncccc1P(C)(C)=O [Example 17] |  | 
6 | 0.62 | 298 | 266 | [2H]C([2H])([2H])NC(=O)c1nnc(Nc2ccc(N3CCOCC3)cn2)cc1Nc1ncccc1P(C)(C)=O [Example 42] |  | 
7 | 0.54 | 114 | 48 | [2H]C([2H])([2H])NC(=O)c1nnc(Nc2ccc(F)cn2)cc1Nc1ncccc1P(C)(C)=O [Example 15] |  | 
8 | 17 | 6320 | 6340 | [2H]C([2H])([2H])NC(=O)c1nnc(NC(=O)C2CC2(C)C)cc1Nc1ncccc1P(C)(C)=O (stereo not drawn) [Example 28] |  | 
9 | 0.34 | 59.4 | 217 | [2H]C([2H])([2H])NC(=O)c1nnc(Nc2ccc(C(F)(F)F)cn2)cc1Nc1ncccc1P(C)(C)=O [Example 39] |  | 
10 | 2 | 1150 | 666 | [2H]C([2H])([2H])NC(=O)c1nnc(Nc2ccn(C)n2)cc1Nc1ncccc1P(C)(C)=O [Example 23] |  | 
11 | 0.79 | 212 | 125 | [2H]C([2H])([2H])NC(=O)c1nnc(Nc2ccccn2)cc1Nc1ncccc1P(C)(C)=O [Example 14] |  | 
12 | 0.86 | 1350 | 350 | [2H]C([2H])([2H])NC(=O)c1nnc(Nc2ccc(C(C)(C)O)c(F)n2)cc1Nc1ncccc1P(C)(C)=O [Example 34] |  | 
13 | 9.8 | 817 | 4160 | [2H]C([2H])([2H])NC(=O)c1nnc(NC(=O)OCC)cc1Nc1ncccc1P(C)(C)=O [Example 19] |  | 
14 | 0.44 | 58 | 33 | [2H]C([2H])([2H])NC(=O)c1nnc(Nc2cccc(C)n2)cc1Nc1ncccc1P(C)(C)=O [Example 18] |  | 
15 | 0.58 | 132 | 90 | [2H]C([2H])([2H])NC(=O)c1nnc(Nc2cc(F)ccn2)cc1Nc1ncccc1P(C)(C)=O [Example 25] |  | 
16 | 0.54 | 45.3 | 53.9 | [2H]C([2H])([2H])NC(=O)c1nnc(Nc2ccc(F)c(C)n2)cc1Nc1ncccc1P(C)(C)=O [Example 31] |  | 
17 | 7.4 | 1800 | 3170 | [2H]C([2H])([2H])NC(=O)c1nnc(NC(=O)C2CC2)cc1Nc1ccccc1P(C)(C)=O [Example 2] |  | 
18 | 2.9 | 3720 | 1480 | [2H]C([2H])([2H])NC(=O)c1nnc(NC(=O)C2CC23CC3)cc1Nc1ncccc1P(C)(C)=O (stereo not drawn) [Example 33] |  | 

Row | IC50 [1] [nM] | IC50 [2, 4] [nM] | IC50 [3, 5] [nM] | SMILES | IC50 ([2]; Homo sapiens, KIT225, read-out: IL23 Kit 225 IC50) [nM] | IC50 ([3]; Homo sapiens, KIT225, read-out: IFN[…] Kit 225 IC50) [nM]
19 | 0.74 | 92 | 144 | [2H]C([2H])([2H])NC(=O)c1nnc(Nc2cc(C3CC3)ccn2)cc1Nc1ncccc1P(C)(C)=O [Example 12] |  | 
20 | 0.43 | 44 | 22 | [2H]C([2H])([2H])NC(=O)c1nnc(Nc2ccc(OC(F)(F)F)cn2)cc1Nc1ncccc1P(C)(C)=O [Example 13] |  | 
21 | 0.46 | 256 | 137 | [2H]C([2H])([2H])NC(=O)c1nnc(Nc2cccc(C(F)(F)F)n2)cc1Nc1ncccc1P(C)(C)=O [Example 40] |  | 
22 | 0.58 | 67 | 50 | [2H]C([2H])([2H])NC(=O)c1nnc(Nc2cc(COC)ccn2)cc1Nc1ncccc1P(C)(C)=O [Example 20] |  | 
23 | 12 | 3700 | 1760 | [2H]C([2H])([2H])NC(=O)c1nnc(Nc2ccn(C)n2)cc1Nc1ccccc1P(C)(C)=O [Example 8] |  | 
24 | 0.56 | 121 | 32.3 | [2H]C([2H])([2H])NC(=O)c1nnc(Nc2ccc(C)cn2)cc1Nc1ncccc1P(C)(C)=O [Example 30] |  | 
25 | 1.2 | 1770 | 2290 | [2H]C([2H])([2H])NC(=O)c1nnc(Nc2ccc(C(C)(C)N)cn2)cc1Nc1ncccc1P(C)(C)=O [Example 35] |  | 
26 | 0.54 | 62 | 22.8 | [2H]C([2H])([2H])NC(=O)c1nnc(Nc2ccc(C)c(C)n2)cc1Nc1ncccc1P(C)(C)=O [Example 29] |  | 
27 | 0.53 | 927 | 905 | [2H]C([2H])([2H])NC(=O)c1nnc(Nc2cc(Cl)c(C(C)(C)O)cn2)cc1Nc1ncccc1P(C)(C)=O [Example 36] |  | 
28 | 0.38 | 52.8 | 74 | [2H]C([2H])([2H])NC(=O)c1nnc(Nc2ccc(Cl)cn2)cc1Nc1ncccc1P(C)(C)=O [Example 37] |  | 
29 | 3.4 | 383 | 242 | [2H]C([2H])([2H])NC(=O)c1nnc(Nc2cc(C3CC3)ccn2)cc1Nc1ccccc1P(C)(C)=O [Example 1] |  | 
30 | 0.97 | 84 | 33 | [2H]C([2H])([2H])NC(=O)c1nnc(Nc2cccc(OC)n2)cc1Nc1ncccc1P(C)(C)=O [Example 24] |  | 
31 | 13 | 12500 | 4610 | [2H]C([2H])([2H])NC(=O)c1nnc(NC(=O)[C@H]2CC2(C)C)cc1Nc1ncccc1P(C)(C)=O [Example 27] |  | 
32 | 13 | 1440 | 799 | [2H]C([2H])([2H])NC(=O)c1nnc(Nc2ccc(N3CCOCC3)cn2)cc1Nc1ccccc1P(C)(C)=O [Example 7] |  | 
33 | 0.62 | 19 | 50 | [2H]C([2H])([2H])NC(=O)c1nnc(Nc2cc(C)ccn2)cc1Nc1ncccc1P(C)(C)=O [Example 21] |  | 
34 | 0.92 | 322 | 206 | [2H]C([2H])([2H])NC(=O)c1nnc(Nc2ccc(C(O)(C(F)(F)F)C(F)(F)F)cn2)cc1Nc1ncccc1P(C)(C)=O [Example 41] |  | 
35 | 1.4 | 282 | 514 | [2H]C([2H])([2H])NC(=O)c1nnc(NC(=O)C2CC2)cc1Nc1ncccc1P(C)(C)=O [Example 9] |  | 
36 | 0.29 | 1210 | 673 | [2H]C([2H])([2H])NC(=O)c1nnc(Nc2ccc(C(C)(C)O)cn2)cc1Nc1ncccc1P(C)(C)=O [Example 16] |  | 

Row | SMILES | IC50 [1] [nM] | IC50 [2, 4] [nM] | IC50 [3, 5] [nM] | IC50 ([2]; Homo sapiens, KIT225, read-out: IL23 Kit 225 IC50) [nM] | IC50 ([3]; Homo sapiens, KIT225, read-out: IFN[…] Kit 225 IC50) [nM]
37 | [2H]C([2H])([2H])NC(=O)c1nnc(Nc2cccc(F)n2)cc1Nc1ncccc1P(C)(C)=O [Example 22] | 0.037 |  |  | 40 | 15
